Results as given in US10080739B2, “Aryl imidazoles and their use as anti-cancer agents” (Aptose Biosciences Inc., priority 2003, dated 2018).
Where two headings read alike, the source gives them in different places.

Legend:
[1] = system: human non-small cell lung cancer cells (H460); assay: XTT cell proliferation assay, H460 cells, 48 h; format: cell-based; conditions: read-out: % Survival
Experimental: (§1) Selected compounds of Formula I were tested for anti-cancer activity in vitro using a human colon carcinoma cells (HT-29) and human non-small cell lung cancer cells (H460). The cells were maintained in α-MEM medium (Wisent, St-Bruno, Qc) supplemented with 10% FBS, and grown at 37° C. in an atmosphere of 5% CO2. Cells were transferred onto 150 mm tissue culture plates and grown until sub-confluency (70-80%) prior to their use.
(§2) The anti-cancer activity in vitro was evaluated by a cell proliferation assay based on the ability of live cells to reduce the tetrazolium salt XTT to orange coloured compounds of formazan (XTT cell proliferation kit II, Roche Applied Science, Montreal, QC).
(§3) Approximately 4×10^3 colon cancer cells (HT-29) or 2×10^3 non-small cell lung cancer cells (NCI-H460) in 100 μl of complete culture medium were plated onto 96-well microtiter plates and incubated overnight at 37° C. The medium was then removed by inverting the plate and patting on a sterile absorbent cloth. Fifty μl of medium containing the test compound at either 25 or 100 μM, were added to the wells containing cells and incubated at 37° C. in an atmosphere of 5% CO2 for 48 h. Following incubation, 25 μl of an XTT reaction mixture (XTT at a final concentration of 0.3 mg/ml) were added to each well and the plates were incubated for a further 4 h. The absorbance of each sample was then determined at a wavelength of 490 nm/650 nm as reference. Each compound was tested in duplicate and the results are reported as averages.

[2] = system: human colon carcinoma cells (HT-29); assay: XTT cell proliferation assay, HT-29 cells, 48 h; format: cell-based; conditions: read-out: % Survival; for viability at 25 µM: 25 μM compound; for viability at 100 µM: 100 μM compound
Experimental: as §1, §2, §3

[3] = NCI/DTP data; cited from earlier work
[4] = NCI-H460 cells, 25 μM compound, 48 h, XTT
[5] = NCI-H460 cells, 100 μM compound, 48 h, XTT

## c1ccc(-c2[nH]c3ccccc3c2-c2nc3c4ccccc4c4ccccc4c3[nH]2)cc1
other
  melting point: 240 to 242 °C

## O=[N+]([O-])c1ccc2c3ccccc3c3nc(-c4c[nH]c5ccccc45)[nH]c3c2c1
other
  melting point: 365 to 366 °C

## Brc1ccc2[nH]cc(C=Nc3ccc4c5ccccc5c5nc(-c6c[nH]c7ccc(Br)cc67)[nH]c5c4c3)c2c1
other
  melting point: 236 to 237 °C

## Cc1[nH]c2ccccc2c1-c1nc2c3ccccc3c3ccc([N+](=O)[O-])cc3c2[nH]1
other
  melting point: 335 to 336 °C

## Nc1ccc2c3ccccc3c3nc(-c4c[nH]c5ccc(Br)cc45)[nH]c3c2c1
other
  melting point: 300 to 303 °C

## CCc1c2c(nc3ccc(OC(=O)N4CCC(N5CCCCC5)CC4)cc13)-c1cc3c(c(=O)n1C2)COC(=O)[C@]3(O)CC [CPT-11, irinotecan, reference compound]
[1]; [4]
  viability at 25 µM: 32.2%
[1]; [5]
  viability at 100 µM: 6.1%
[2]
  viability at 25 µM: 82.3%
  viability at 100 µM: 51.1%

## CC(=O)n1c(-c2c(C)n(C(C)=O)c3ccccc23)nc(-c2ccccc2)c1-c1ccccc1 [Compound 5]
[1]; [4]
  viability at 25 µM: 102%
[1]; [5]
  viability at 100 µM: 106%
[2]
  viability at 25 µM: 111%
  viability at 100 µM: 111%

## Brc1ccc2[nH]cc(-c3nc(-c4ccccc4)c(-c4ccccc4)[nH]3)c2c1 [Compound 6]
[1]; [4]
  viability at 25 µM: 10.4%
[1]; [5]
  viability at 100 µM: 1.9%
[2]
  viability at 25 µM: 11.7%
  viability at 100 µM: 3.2%

## COc1ccc(-c2nc(-c3c(C)[nH]c4ccccc34)[nH]c2-c2ccc(OC)cc2)cc1 [Compound 9]
[1]; [4]
  viability at 25 µM: 98.2%
[1]; [5]
  viability at 100 µM: 8.4%
[2]
  viability at 25 µM: 68.3%
  viability at 100 µM: 15.1%

## COc1ccc(-c2nc(-c3c[nH]c4ccc(Br)cc34)[nH]c2-c2ccc(OC)cc2)cc1 [Compound 10]
[1]; [4]
  viability at 25 µM: 26.9%
[1]; [5]
  viability at 100 µM: 2.7%
[2]
  viability at 25 µM: 25.8%
  viability at 100 µM: 7.6%

## Cc1[nH]c2ccccc2c1-c1nc(-c2ccc(N(C)C)cc2)c(-c2ccc(N(C)C)cc2)[nH]1 [Compound 11]
[1]; [4]
  viability at 25 µM: 98.8%
[1]; [5]
  viability at 100 µM: 102%
[2]
  viability at 25 µM: 108%
  viability at 100 µM: 94.3%

## Cc1[nH]c2ccccc2c1-c1nc(-c2ccc(Br)cc2)c(-c2ccc(Br)cc2)[nH]1 [Compound 13]
[1]; [4]
  viability at 25 µM: 102%
[1]; [5]
  viability at 100 µM: 96.2%
[2]
  viability at 25 µM: 106%
  viability at 100 µM: 82.4%

## Brc1ccc(-c2nc(-c3c[nH]c4ccc(Br)cc34)[nH]c2-c2ccc(Br)cc2)cc1 [Compound 14]
[1]; [4]
  viability at 25 µM: 83.5%
[1]; [5]
  viability at 100 µM: 1.8%
[2]
  viability at 25 µM: 55.2%
  viability at 100 µM: 3.8%

## Cc1[nH]c2ccccc2c1-c1nc(-c2ccc(Cl)cc2)c(-c2ccc(Cl)cc2)[nH]1 [Compound 19]
other
  melting point: 165 to 167 °C
[1]; [4]
  viability at 25 µM: 89.2%
[1]; [5]
  viability at 100 µM: 27.3%
[2]
  viability at 25 µM: 106%
  viability at 100 µM: 37.1%

## Clc1ccc(-c2nc(-c3c[nH]c4ccc(Br)cc34)[nH]c2-c2ccc(Cl)cc2)cc1 [Compound 20]
[1]; [4]
  viability at 25 µM: 98.6%
[1]; [5]
  viability at 100 µM: 82.1%
[2]
  viability at 25 µM: 100%
  viability at 100 µM: 28.1%

## Cc1ccc(-c2nc(-c3c(C)[nH]c4ccccc34)[nH]c2-c2ccc(C)cc2)cc1 [Compound 23]
[1]; [4]
  viability at 25 µM: 96.3%
[1]; [5]
  viability at 100 µM: 92.1%
[2]
  viability at 25 µM: 98.2%
  viability at 100 µM: 45.7%

## Cc1[nH]c2ccccc2c1-c1nc(-c2cccs2)c(-c2cccs2)[nH]1 [Compound 25]
[1]; [4]
  viability at 25 µM: 99.5%
[1]; [5]
  viability at 100 µM: 89%
[2]
  viability at 25 µM: 63.9%
  viability at 100 µM: 39.8%

## Cc1[nH]c2ccccc2c1-c1nc(-c2ccncc2)c(-c2ccc(F)cc2)[nH]1 [Compound 27]
[1]; [4]
  viability at 25 µM: 93.5%
[1]; [5]
  viability at 100 µM: 43.1%
[2]
  viability at 25 µM: 62.3%
  viability at 100 µM: 35%

## Cc1[nH]c2ccccc2c1-c1nc(-c2cccc([N+](=O)[O-])c2)c(-c2cccc([N+](=O)[O-])c2)[nH]1 [Compound 29]
[1]; NCI-H460, 48 h
  viability at 25 µM: 73.8%
  viability at 100 µM: 20.2%
[2]
  viability at 25 µM: 37.1%
  viability at 100 µM: 20.9%

## Cc1[nH]c2ccccc2c1-c1nc(-c2ccccc2)c(-c2ccc(Cl)cc2)[nH]1 [Compound 31]
[1]; [4]
  viability at 25 µM: 94%
[1]; [5]
  viability at 100 µM: 37.6%
[2]
  viability at 25 µM: 98.6%
  viability at 100 µM: 24.9%

## Clc1ccc(-c2[nH]c(-c3c[nH]c4ccc(Br)cc34)nc2-c2ccccc2)cc1 [Compound 32]
[1]; [4]
  viability at 25 µM: 15%
[1]; [5]
  viability at 100 µM: 2.9%
[2]
  viability at 25 µM: 22.7%
  viability at 100 µM: 7.7%

## Cc1[nH]c2ccccc2c1-c1nc(-c2ccccc2)c(-c2ccc([N+](=O)[O-])cc2)[nH]1 [Compound 33]
[1]; [4]
  viability at 25 µM: 73.4%
[1]; [5]
  viability at 100 µM: 9.4%
[2]
  viability at 25 µM: 56.1%
  viability at 100 µM: 10%

## O=[N+]([O-])c1ccc(-c2[nH]c(-c3c[nH]c4ccc(Br)cc34)nc2-c2ccccc2)cc1 [Compound 34]
[1]; [4]
  viability at 25 µM: 17.4%
[1]; [5]
  viability at 100 µM: 7.6%
[2]
  viability at 25 µM: 22.8%
  viability at 100 µM: 10.8%

## Cc1[nH]c2ccccc2c1-c1nc(-c2ccccc2)c(-c2ccc(F)cc2)[nH]1 [Compound 35]
[1]; [4]
  viability at 25 µM: 83.8%
[1]; [5]
  viability at 100 µM: 1.2%
[2]
  viability at 25 µM: 44.1%
  viability at 100 µM: 2.5%

## Fc1ccc(-c2[nH]c(-c3c[nH]c4ccc(Br)cc34)nc2-c2ccccc2)cc1 [Compound 36]
[1]; [4]
  viability at 25 µM: 24.5%
[1]; [5]
  viability at 100 µM: 2.4%
[2]
  viability at 25 µM: 31.6%
  viability at 100 µM: 4.7%

## Cc1[nH]c2ccccc2c1-c1nc(-c2ccc(Oc3ccccc3)cc2)c(-c2ccc(Oc3ccccc3)cc2)[nH]1 [Compound 38]
[1]; [4]
  viability at 25 µM: 98.8%
[1]; [5]
  viability at 100 µM: 12.2%
[2]
  viability at 25 µM: 67%
  viability at 100 µM: 35.7%

## Cc1[nH]c2ccc(Br)cc2c1-c1nc(-c2ccc(Oc3ccccc3)cc2)c(-c2ccc(Oc3ccccc3)cc2)[nH]1 [Compound 39]
[1]; [4]
  viability at 25 µM: 98.1%
[1]; [5]
  viability at 100 µM: 17%
[2]
  viability at 25 µM: 96.2%
  viability at 100 µM: 53%

## Cc1[nH]c2ccccc2c1-c1nc(-c2ccc(-c3ccccc3)cc2)c(-c2ccc(-c3ccccc3)cc2)[nH]1 [Compound 40]
[1]; [4]
  viability at 25 µM: 97.6%
[1]; [5]
  viability at 100 µM: 7.7%
[2]
  viability at 25 µM: 79.1%
  viability at 100 µM: 36.7%

## Brc1ccc2[nH]cc(-c3nc(-c4ccc(-c5ccccc5)cc4)c(-c4ccc(-c5ccccc5)cc4)[nH]3)c2c1 [Compound 41]
other
  melting point: 155 to 158 °C

## Cc1[nH]c2ccccc2c1-c1nc(-c2ccccc2)c(-c2ccc(Br)cc2)[nH]1 [Compound 42]
[1]; [4]
  viability at 25 µM: 66.1%
[1]; [5]
  viability at 100 µM: 1.2%
[2]
  viability at 25 µM: 59.9%
  viability at 100 µM: 1.8%

## Brc1ccc(-c2[nH]c(-c3c[nH]c4ccc(Br)cc34)nc2-c2ccccc2)cc1 [Compound 43]
[1]; [4]
  viability at 25 µM: 18.8%
[1]; [5]
  viability at 100 µM: 3%
[2]
  viability at 25 µM: 28%
  viability at 100 µM: 5.7%

## Cc1[nH]c2ccccc2c1-c1nc2c3ccccc3c3ccccc3c2[nH]1 [Compound 44]
[1]; NCI-H460, 48 h
  viability at 25 µM: 77.3%
  viability at 100 µM: 3.4%
[2]
  viability at 25 µM: 63.6%
  viability at 100 µM: 6.5%

## c1ccc2c(-c3nc4c5ccccc5c5ccccc5c4[nH]3)c[nH]c2c1 [Compound 46]
[1]; NCI-H460, 48 h
  viability at 25 µM: 11.5%
  viability at 100 µM: 1.9%
[2]
  viability at 25 µM: 16.1%
  viability at 100 µM: 4.5%

## COc1ccc(-c2nc(-c3ccccc3)c(-c3ccccc3)[nH]2)c(OC)c1 [Compound 73]
[1]; [4]
  viability at 25 µM: 89.2%
[1]; [5]
  viability at 100 µM: 53.5%
[2]
  viability at 25 µM: 65%
  viability at 100 µM: 62.2%

## COC(=O)c1ccc2c(-c3nc(-c4ccccc4)c(-c4ccccc4)[nH]3)c[nH]c2c1 [Compound 83]
[1]; [4]
  viability at 25 µM: 101%
[1]; [5]
  viability at 100 µM: 109%
[2]
  viability at 25 µM: 100%
  viability at 100 µM: 110%

## COc1ccc(-c2nc(-c3c[nH]c4ccc(Br)cc34)[nH]c2-c2ccccc2)cc1OC [Compound 96]
other
  melting point: 265 to 266 °C

## Oc1ccc(-c2[nH]c(-c3c[nH]c4ccc(Br)cc34)nc2-c2ccccc2)cc1O [Compound 140]
other
  melting point: 210 to 215 °C

## COc1ccc(-c2nc(-c3c[nH]c4ccccc34)[nH]c2-c2ccccc2)cc1OC [Compound 152]
other
  melting point: 258 to 259 °C

## Cc1[nH]c2ccccc2c1-c1nc(-c2cccc3ccccc23)c(-c2ccccc2)[nH]1 [Compound 180]
other
  melting point: 239 to 240 °C

## Brc1ccc2[nH]cc(-c3nc(-c4cccc5ccccc45)c(-c4ccccc4)[nH]3)c2c1 [Compound 181]
other
  melting point: 308 to 310 °C

## Nc1ccc(-c2[nH]c(-c3c[nH]c4ccccc34)nc2-c2ccccc2)cc1 [Compound 182]
other
  melting point: 264 to 265 °C

## c1ccc2c(-c3nc4ccccc4[nH]3)cccc2c1 [Compound 144033]
[3]
  activity in the In Vivo Anticancer Drug Screen: None of these three compounds showed any activity

## CN(C)c1ccc(-c2nc3c4ccccc4c4ccccc4c3[nH]2)cc1 [NCI #322334]
[3]
  activity in the In Vivo Anticancer Drug Screen: None of these three compounds showed any activity
